Values after ≈ are worked out from the molar mass of the structure shown.
What was measured:
[1] = Cmax in Neisseria gonorrhoeae infected patient at 400 mg, po; type: ADME, organism-based; design: dose 400 mg, route oral; settings: human, in vivo
Neisseria gonorrhoeae [2] = assay: Antimicrobial activity against penicillin-,ofloxacin- and tetracyclin-resistant Neisseria gonorrhoeae multiantigen sequence type 835 isolate 10 harboring penA gene by agar dilution method; type: functional
Neisseria gonorrhoeae [3] = assay: Antimicrobial activity against penicillin-,ofloxacin- and tetracyclin-resistant Neisseria gonorrhoeae multiantigen sequence type 835 isolate 7 harboring penA gene by disk diffusion method; type: functional
Neisseria gonorrhoeae [4] = assay: Antimicrobial activity against penicillin-,ofloxacin- and tetracyclin-resistant Neisseria gonorrhoeae multiantigen sequence type 835 isolate 7 harboring penA gene by agar dilution method; type: functional
Neisseria gonorrhoeae [5] = assay: Antimicrobial activity against penicillin-,ofloxacin- and tetracyclin-resistant Neisseria gonorrhoeae multiantigen sequence type 835 isolate 8 harboring penA gene by disk diffusion method; type: functional
Neisseria gonorrhoeae [6] = assay: Antimicrobial activity against penicillin-,ofloxacin- and tetracyclin resistant penA-negative Neisseria gonorrhoeae by […]; type: functional
Neisseria gonorrhoeae [7] = assay: Antimicrobial activity against penicillin-,ofloxacin- and tetracyclin-resistant Neisseria gonorrhoeae multiantigen sequence type 835 isolate 4 harboring penA gene by agar dilution method; type: functional
Neisseria gonorrhoeae [8] = assay: Antimicrobial activity against penicillin-,ofloxacin- and tetracyclin-resistant Neisseria gonorrhoeae multiantigen sequence type 835 isolate 9 harboring penA gene by disk diffusion method; type: functional
Neisseria gonorrhoeae [9] = assay: Antimicrobial activity against penicillin-,ofloxacin- and tetracyclin-resistant Neisseria gonorrhoeae multiantigen sequence type 835 isolate 10 harboring penA gene by disk diffusion method; type: functional
Neisseria gonorrhoeae [10] = assay: Antimicrobial activity against penicillin-,ofloxacin- and tetracyclin-resistant Neisseria gonorrhoeae multiantigen sequence type 835 isolate 2 harboring penA gene by agar dilution method; type: functional
Neisseria gonorrhoeae [11] = assay: Antimicrobial activity against penicillin-,ofloxacin- and tetracyclin-resistant Neisseria gonorrhoeae multiantigen sequence type 2469 isolate 11 harboring penA gene by disk diffusion method; type: functional
Neisseria gonorrhoeae [12] = assay: Antimicrobial activity against penicillin-,ofloxacin- and tetracyclin-resistant Neisseria gonorrhoeae multiantigen sequence type 835 isolate 6 harboring penA gene by agar dilution method; type: functional
[13] = Oral bioavailability in Neisseria gonorrhoeae infected patient at 400 mg, po; type: ADME, organism-based; settings: human, in vivo
[14] = Half life in Neisseria gonorrhoeae infected patient at 400 mg, po; type: ADME, organism-based; settings: human, in vivo
Neisseria gonorrhoeae [15] = assay: Antimicrobial activity against penicillin-,ofloxacin- and tetracyclin-resistant Neisseria gonorrhoeae multiantigen sequence type 835 isolate 4 harboring penA gene by disk diffusion method; type: functional
Neisseria gonorrhoeae [16] = assay: Antimicrobial activity against penicillin-,ofloxacin- and tetracyclin-resistant Neisseria gonorrhoeae multiantigen sequence type 835 isolate 8 harboring penA gene by agar dilution method; type: functional
Neisseria gonorrhoeae [17] = assay: Antimicrobial activity against penicillin-,ofloxacin- and tetracyclin resistant Neisseria gonorrhoeae by […]; type: functional
Neisseria gonorrhoeae [18] = assay: Antimicrobial activity against penicillin-,ofloxacin- and tetracyclin-resistant Neisseria gonorrhoeae multiantigen sequence type 835 isolate 9 harboring penA gene by agar dilution method; type: functional
Neisseria gonorrhoeae [19] = assay: Antimicrobial activity against penicillin-,ofloxacin- and tetracyclin-resistant Neisseria gonorrhoeae multiantigen sequence type 835 isolate 5 harboring penA gene by disk diffusion method; type: functional
Neisseria gonorrhoeae [20] = assay: Antimicrobial activity against penicillin-,ofloxacin- and tetracyclin-resistant Neisseria gonorrhoeae multiantigen sequence type 835 isolate 1 harboring penA gene by disk diffusion method; type: functional
Neisseria gonorrhoeae [21] = assay: Antimicrobial activity against penicillin-,ofloxacin- and tetracyclin-resistant Neisseria gonorrhoeae multiantigen sequence type 2469 isolate 11 harboring penA gene by agar dilution method; type: functional
Neisseria gonorrhoeae [22] = assay: Antimicrobial activity against penicillin-,ofloxacin- and tetracyclin-resistant Neisseria gonorrhoeae multiantigen sequence type 835 isolate 1 harboring penA gene by agar dilution method; type: functional
Serum = assay: Protein binding in Neisseria gonorrhoeae infected patient serum at 400 mg, po; type: ADME, organism-based; settings: human, in vivo
Neisseria gonorrhoeae [23] = assay: Antimicrobial activity against penicillin-,ofloxacin- and tetracyclin-resistant Neisseria gonorrhoeae multiantigen sequence type 835 isolate 2 harboring penA gene by disk diffusion method; type: functional
Neisseria gonorrhoeae [24] = assay: Antimicrobial activity against penicillin-,ofloxacin- and tetracyclin-resistant Neisseria gonorrhoeae multiantigen sequence type 835 isolate 3 harboring penA gene by disk diffusion method; type: functional
Neisseria gonorrhoeae [25] = assay: Antimicrobial activity against penicillin-,ofloxacin- and tetracyclin-resistant Neisseria gonorrhoeae multiantigen sequence type 835 isolate 5 harboring penA gene by agar dilution method; type: functional
Neisseria gonorrhoeae [26] = assay: Antimicrobial activity against penicillin-,ofloxacin- and tetracyclin-resistant Neisseria gonorrhoeae multiantigen sequence type 835 isolate 6 harboring penA gene by disk diffusion method; type: functional
Neisseria gonorrhoeae [27] = assay: Antimicrobial activity against penicillin-,ofloxacin- and tetracyclin-resistant Neisseria gonorrhoeae multiantigen sequence type 835 isolate 3 harboring penA gene by agar dilution method; type: functional
Neisseria gonorrhoeae [28] = assay: Antimicrobial activity against penicillin-,ofloxacin- and tetracyclin-resistant Neisseria gonorrhoeae multiantigen sequence type 835 isolate 5 harboring penA gene by Etest; type: functional
Neisseria gonorrhoeae [29] = assay: Antimicrobial activity against penicillin-,ofloxacin- and tetracyclin-resistant Neisseria gonorrhoeae multiantigen sequence type 835 isolate 7 harboring penA gene by Etest; type: functional
Neisseria gonorrhoeae [30] = assay: Antimicrobial activity against penicillin-,ofloxacin- and tetracyclin-resistant Neisseria gonorrhoeae multiantigen sequence type 835 isolate 6 harboring penA gene by Etest; type: functional
Neisseria gonorrhoeae [31] = assay: Antimicrobial activity against penicillin-,ofloxacin- and tetracyclin-resistant Neisseria gonorrhoeae multiantigen sequence type 835 isolate 4 harboring penA gene by Etest; type: functional
Neisseria gonorrhoeae [32] = assay: Antimicrobial activity against penicillin-,ofloxacin- and tetracyclin-resistant Neisseria gonorrhoeae multiantigen sequence type 835 isolate 9 harboring penA gene by Etest; type: functional
Neisseria gonorrhoeae [33] = assay: Antimicrobial activity against penicillin-,ofloxacin- and tetracyclin-resistant Neisseria gonorrhoeae multiantigen sequence type 835 isolate 2 harboring penA gene by Etest; type: functional
Neisseria gonorrhoeae [34] = assay: Antimicrobial activity against penicillin-,ofloxacin- and tetracyclin-resistant Neisseria gonorrhoeae multiantigen sequence type 835 isolate 10 harboring penA gene by Etest; type: functional
Neisseria gonorrhoeae [35] = assay: Antimicrobial activity against penicillin-,ofloxacin- and tetracyclin-resistant Neisseria gonorrhoeae multiantigen sequence type 835 isolate 3 harboring penA gene by Etest; type: functional
Neisseria gonorrhoeae [36] = assay: Antimicrobial activity against penicillin-,ofloxacin- and tetracyclin-resistant Neisseria gonorrhoeae multiantigen sequence type 2469 isolate 11 harboring penA gene by Etest; type: functional
Neisseria gonorrhoeae [37] = assay: Antimicrobial activity against penicillin-,ofloxacin- and tetracyclin-resistant Neisseria gonorrhoeae multiantigen sequence type 835 isolate 1 harboring penA gene by Etest; type: functional
Neisseria gonorrhoeae [38] = assay: Antimicrobial activity against penicillin-,ofloxacin- and tetracyclin-resistant Neisseria gonorrhoeae multiantigen sequence type 835 isolate 8 harboring penA gene by Etest; type: functional

For `Nc1nc(/C(=C/CC(=O)O)C(=O)N[C@@H]2C(=O)N3C(C(=O)O)=CCS[C@H]23)cs1` [CEFTIBUTEN], the Cmax [1] was 15000 ng/mL, the MIC (Neisseria gonorrhoeae [2]) was 8 µg/mL (≈ 19.5 µM) and the “diameter of the inhibition zone (DIZ)” value (Neisseria gonorrhoeae [3]) was 25 mm. For the same compound, the MIC (Neisseria gonorrhoeae [4]) was 8 µg/mL (≈ 19.5 µM), the “diameter of the inhibition zone (DIZ)” value (Neisseria gonorrhoeae [5]) was 21 mm and the MIC (Neisseria gonorrhoeae [6]) was at most 1 µg/mL. For the same compound, the MIC (Neisseria gonorrhoeae [7]) was 8 µg/mL (≈ 19.5 µM), the “diameter of the inhibition zone (DIZ)” value (Neisseria gonorrhoeae [8]) was 27 mm and the “diameter of the inhibition zone (DIZ)” value (Neisseria gonorrhoeae [9]) was 19 mm. For the same compound, the MIC (Neisseria gonorrhoeae [10]) was 8 µg/mL (≈ 19.5 µM), the “diameter of the inhibition zone (DIZ)” value (Neisseria gonorrhoeae [11]) was 23 mm and the MIC (Neisseria gonorrhoeae [12]) was 8 µg/mL (≈ 19.5 µM). For the same compound, the bioavailability [13] was 80%, the half-life [14] was 2.4 h and the “diameter of the inhibition zone (DIZ)” value (Neisseria gonorrhoeae [15]) was 22 mm. The MIC (Neisseria gonorrhoeae [16]) was 8 µg/mL (≈ 19.5 µM), the “diameter of the inhibition zone (DIZ)” value (Neisseria gonorrhoeae [17]) was “>=30 mm” and the MIC (Neisseria gonorrhoeae [18]) was 8 µg/mL (≈ 19.5 µM). For the same compound, the “diameter of the inhibition zone (DIZ)” value (Neisseria gonorrhoeae [19]) was 20 mm, the “diameter of the inhibition zone (DIZ)” value (Neisseria gonorrhoeae [20]) was 26 mm and the MIC (Neisseria gonorrhoeae [21]) was 8 µg/mL (≈ 19.5 µM). The MIC (Neisseria gonorrhoeae [22]) was 8 µg/mL (≈ 19.5 µM), the Activity (Serum) was 65% and the “diameter of the inhibition zone (DIZ)” value (Neisseria gonorrhoeae [23]) was 24 mm. For the same compound, the “diameter of the inhibition zone (DIZ)” value (Neisseria gonorrhoeae [24]) was 25 mm, the MIC (Neisseria gonorrhoeae [25]) was 8 µg/mL (≈ 19.5 µM) and the “diameter of the inhibition zone (DIZ)” value (Neisseria gonorrhoeae [26]) was 22 mm. For the same compound, the MIC (Neisseria gonorrhoeae [27]) was 8 µg/mL (≈ 19.5 µM).
With `C=CC1=C(C(=O)O)N2C(=O)[C@@H](NC(=O)/C(=N\OCC(=O)O)c3csc(N)n3)[C@H]2SC1` [CEFIXIME] the Cmax [1] was 3000 ng/mL, the MIC (Neisseria gonorrhoeae [28]) was 0.25 µg/mL (≈ 0.551 µM) and the MIC (Neisseria gonorrhoeae [29]) was 0.25 µg/mL (≈ 0.551 µM). The MIC (Neisseria gonorrhoeae [30]) was 0.25 µg/mL (≈ 0.551 µM), the MIC (Neisseria gonorrhoeae [31]) was 0.25 µg/mL (≈ 0.551 µM) and the MIC (Neisseria gonorrhoeae [32]) was 0.125 µg/mL (≈ 0.276 µM). The bioavailability [13] was 50%, the half-life [14] was 3.1 h and the MIC (Neisseria gonorrhoeae [33]) was 0.25 µg/mL (≈ 0.551 µM). For the same compound, the MIC (Neisseria gonorrhoeae [34]) was 0.25 µg/mL (≈ 0.551 µM), the MIC (Neisseria gonorrhoeae [35]) was 0.25 µg/mL (≈ 0.551 µM) and the MIC (Neisseria gonorrhoeae [36]) was 0.125 µg/mL (≈ 0.276 µM). It also gave an Activity (Serum) of 65%, an MIC (Neisseria gonorrhoeae [37]) of 0.25 µg/mL (≈ 0.551 µM) and an MIC (Neisseria gonorrhoeae [38]) of 0.25 µg/mL (≈ 0.551 µM).
For `CN[C@@H]1[C@H](O)[C@H](NC)[C@H]2O[C@@]3(O)C(=O)C[C@@H](C)O[C@H]3O[C@@H]2[C@H]1O` [SPECTINOMYCIN], the MIC (Neisseria gonorrhoeae [28]) was 8 µg/mL (≈ 24.1 µM), the MIC (Neisseria gonorrhoeae [29]) was 8 µg/mL (≈ 24.1 µM) and the MIC (Neisseria gonorrhoeae [30]) was 8 µg/mL (≈ 24.1 µM). The MIC (Neisseria gonorrhoeae [31]) was 8 µg/mL (≈ 24.1 µM), the MIC (Neisseria gonorrhoeae [32]) was 8 µg/mL (≈ 24.1 µM) and the MIC (Neisseria gonorrhoeae [33]) was 16 µg/mL (≈ 48.1 µM). For the same compound, the MIC (Neisseria gonorrhoeae [34]) was 8 µg/mL (≈ 24.1 µM), the MIC (Neisseria gonorrhoeae [35]) was 16 µg/mL (≈ 48.1 µM) and the MIC (Neisseria gonorrhoeae [36]) was 8 µg/mL (≈ 24.1 µM). The MIC (Neisseria gonorrhoeae [37]) was 8 µg/mL (≈ 24.1 µM) and the MIC (Neisseria gonorrhoeae [38]) was 8 µg/mL (≈ 24.1 µM).
In the case of `CO/N=C(\C(=O)N[C@@H]1C(=O)N2C(C(=O)O)=C(CSc3nc(=O)c(O)nn3C)CS[C@H]12)c1csc(N)n1` [CEFTRIAXONE], the MIC (Neisseria gonorrhoeae [28]) is reported as 0.064 µg/mL (≈ 0.115 µM), the MIC (Neisseria gonorrhoeae [29]) is reported as 0.064 µg/mL (≈ 0.115 µM) and the MIC (Neisseria gonorrhoeae [30]) is reported as 0.064 µg/mL (≈ 0.115 µM). It also gave an MIC (Neisseria gonorrhoeae [31]) of 0.064 µg/mL (≈ 0.115 µM), an MIC (Neisseria gonorrhoeae [32]) of 0.064 µg/mL (≈ 0.115 µM) and an MIC (Neisseria gonorrhoeae [33]) of 0.064 µg/mL (≈ 0.115 µM). For the same compound, the MIC (Neisseria gonorrhoeae [34]) was 0.064 µg/mL (≈ 0.115 µM), the MIC (Neisseria gonorrhoeae [35]) was 0.064 µg/mL (≈ 0.115 µM) and the MIC (Neisseria gonorrhoeae [36]) was 0.064 µg/mL (≈ 0.115 µM). For the same compound, the MIC (Neisseria gonorrhoeae [37]) was 0.064 µg/mL (≈ 0.115 µM) and the MIC (Neisseria gonorrhoeae [38]) was 0.125 µg/mL (≈ 0.225 µM).

From ChEMBL document CHEMBL1275510, “Ceftibuten resistance and treatment failure of Neisseria gonorrhoeae infection” (Antimicrob Agents Chemother, 2008)
